How the values were obtained:
[1] = biological target: T1, 3',5'-cyclic-AMP phosphodiesterase 4B (Homo sapiens, UniProt Q07343); test: Inhibition of human PDE4B
[2] = biological target: T2, 3',5'-cyclic-AMP phosphodiesterase 4D (Homo sapiens, UniProt Q08499); test: Inhibition of human PDE4D
Homo sapiens = species: Homo sapiens; test: Selectivity index, ratio of IC50 for human PDE4D to IC50 for human PDE4B
[3] = biological target: T1, 3',5'-cyclic-AMP phosphodiesterase 4B; test: Inhibition of human PDE4B1
[4] = biological target: T2, 3',5'-cyclic-AMP phosphodiesterase 4D; test: Inhibition of human PDE4D7

T2 sequence (Q08499 whole entry): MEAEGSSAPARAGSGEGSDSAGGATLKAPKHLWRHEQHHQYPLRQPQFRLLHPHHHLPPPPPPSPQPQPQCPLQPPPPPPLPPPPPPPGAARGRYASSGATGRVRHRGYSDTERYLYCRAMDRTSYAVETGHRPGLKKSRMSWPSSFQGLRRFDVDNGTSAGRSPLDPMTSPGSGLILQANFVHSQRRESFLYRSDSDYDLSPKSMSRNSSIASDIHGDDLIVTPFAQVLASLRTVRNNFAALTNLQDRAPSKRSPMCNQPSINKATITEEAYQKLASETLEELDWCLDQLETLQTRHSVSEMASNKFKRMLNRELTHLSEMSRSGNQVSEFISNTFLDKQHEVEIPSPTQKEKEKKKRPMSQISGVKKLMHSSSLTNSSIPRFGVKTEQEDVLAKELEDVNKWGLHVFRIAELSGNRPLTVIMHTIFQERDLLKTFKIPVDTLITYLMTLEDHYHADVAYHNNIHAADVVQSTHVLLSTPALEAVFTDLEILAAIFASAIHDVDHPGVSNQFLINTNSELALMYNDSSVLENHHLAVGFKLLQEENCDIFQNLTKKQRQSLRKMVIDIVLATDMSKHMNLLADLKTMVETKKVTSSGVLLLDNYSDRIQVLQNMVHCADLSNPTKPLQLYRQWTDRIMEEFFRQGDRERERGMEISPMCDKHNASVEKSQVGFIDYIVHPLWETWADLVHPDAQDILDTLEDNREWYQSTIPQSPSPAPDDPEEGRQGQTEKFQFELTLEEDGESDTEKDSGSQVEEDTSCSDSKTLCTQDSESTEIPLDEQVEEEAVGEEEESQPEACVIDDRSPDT
T1 sequence (Q07343 whole entry): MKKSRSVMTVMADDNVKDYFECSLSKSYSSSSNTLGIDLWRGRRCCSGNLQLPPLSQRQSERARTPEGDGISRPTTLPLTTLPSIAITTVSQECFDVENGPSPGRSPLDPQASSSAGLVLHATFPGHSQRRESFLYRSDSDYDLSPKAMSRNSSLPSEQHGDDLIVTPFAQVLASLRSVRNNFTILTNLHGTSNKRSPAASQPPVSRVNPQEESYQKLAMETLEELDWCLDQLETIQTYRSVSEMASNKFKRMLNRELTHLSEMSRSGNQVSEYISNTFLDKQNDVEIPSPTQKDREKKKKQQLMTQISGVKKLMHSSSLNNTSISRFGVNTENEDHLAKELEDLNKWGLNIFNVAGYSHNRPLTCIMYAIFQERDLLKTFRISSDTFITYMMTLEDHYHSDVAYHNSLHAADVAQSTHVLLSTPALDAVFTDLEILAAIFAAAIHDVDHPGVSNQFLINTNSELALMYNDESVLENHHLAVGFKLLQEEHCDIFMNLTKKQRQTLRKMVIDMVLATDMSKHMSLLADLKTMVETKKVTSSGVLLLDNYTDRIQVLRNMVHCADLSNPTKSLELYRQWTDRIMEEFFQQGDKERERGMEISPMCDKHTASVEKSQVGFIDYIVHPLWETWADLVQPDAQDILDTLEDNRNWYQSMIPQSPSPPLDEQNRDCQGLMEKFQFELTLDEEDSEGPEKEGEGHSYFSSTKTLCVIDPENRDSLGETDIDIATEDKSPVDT

Compound	IC50 ([1]; read-out: IC50) [nM]	IC50 ([2]; read-out: IC50) [nM]	Ratio IC50 (Homo sapiens)	IC50 [3] [nM]	IC50 [4] [nM]	IC50 [1]	IC50 [2]
CCCc1nc(Nc2ccc(CC(=O)O)cc2)nc(-c2ccc(Cl)s2)n1	2450	–	–	–	–	–	–
O=C(O)c1ccc(Nc2nc(-c3cccc(Cl)c3)nc(C3CC3)n2)cc1	46	20	0.4	–	–	–	–
CCc1nc(Nc2ccc(C(=O)O)cc2)nc(-c2cccc(Cl)c2)n1	241	213	0.9	–	–	–	–
CCc1nc(Nc2ccc(NS(N)(=O)=O)cc2)nc(-c2cccc(Cl)c2)n1	402	160	0.4	–	–	–	–
CC(C)c1nc(Nc2ccc(F)cc2)nc(-c2ccc(Cl)s2)n1	8820	886	–	–	–	–	–
O=C(O)Cc1ccc(CNc2nc(-c3ccc(Cl)cc3)nc(C3CC3)n2)cc1	2280	859	0.38	–	–	–	–
CCc1nc(Nc2ccc(F)cc2)nc(-c2ccc(Cl)s2)n1	1390	207	0.15	–	–	–	–
O=C(O)Cc1ccc(Oc2nc(-c3cccc(Cl)c3)nc(C3CC3)n2)cc1	1860	2270	1.2	–	–	–	–
O=C(O)Cc1ccc(Nc2nc(-c3cccc(F)c3)nc(C3CC3)n2)cc1	1440	2110	1.5	–	–	–	–
CCc1nc(Nc2ccc(-c3nn[nH]n3)cc2)nc(-c2cccc(Cl)c2)n1	126	132	–	–	–	–	–
CCc1c(C)nc(-c2ccc(Cl)s2)nc1Nc1ccc(CC(=O)O)cc1	–	–	–	55	2000	–	–
CCc1nc(Nc2ccc(C#N)cc2)nc(-c2cccc(Cl)c2)n1	12	13	1.1	–	–	–	–
CCc1nc(Nc2ccc(-c3nnn[nH]3)cc2)nc(-c2cccc(Cl)c2)n1	–	–	1	–	–	–	–
CCc1nc(Nc2ccc(CC(=O)O)cc2)nc(-c2cccc(Cl)c2)n1	781	681	0.9	–	–	–	–
Cc1nc(Nc2ccc(CC(=O)O)cc2)nc(-c2ccc(Cl)s2)n1	1290	–	–	–	–	–	–
O=C(O)Cc1ccc(CNc2nc(-c3cccc(Cl)c3)nc(C3CC3)n2)cc1	845	726	0.86	–	–	–	–
CCc1nc(Nc2ccc(C(C)C(=O)O)cc2)nc(-c2cccc(Cl)c2)n1 (stereo not given)	1090	96	0.09	–	–	–	–
O=C1NCCN1c1ccc(Nc2nc(-c3cccc(Cl)c3)nc(C3CC3)n2)cc1	–	–	–	–	–	Not Active	Not Active

Compound	IC50 ([1]; read-out: IC50) [nM]	IC50 ([2]; read-out: IC50) [nM]	Ratio IC50 (Homo sapiens)	IC50 [3] [nM]	IC50 [4] [nM]	IC50 [1]	IC50 [2]
CCc1nc(Nc2ccc(Cc3nnn[nH]3)cc2)nc(-c2cccc(Cl)c2)n1	69	63	0.9	–	–	–	–
O=C(O)Cc1ccc(Nc2nc(-c3ccc(Cl)cc3)nc(C3CC3)n2)cc1	3770	5610	1.5	–	–	–	–
CC(C)c1nc(Nc2ccc(CC(=O)O)cc2)nc(-c2ccc(Cl)s2)n1	1940	3580	1.8	–	–	–	–
O=C(O)Cc1ccc(Nc2nc(-c3cccc(Cl)c3)nc(C3CC3)n2)cc1	237	1180	5	–	–	–	–
CCc1nc(Nc2ccc(CC(=O)O)cc2)nc(-c2ccc(F)cc2)n1	1460	727	0.5	–	–	–	–
CCc1nc(Nc2ccc(CC#N)cc2)nc(-c2cccc(Cl)c2)n1	165	7	0.04	–	–	–	–
CCc1nc(Nc2ccc(CC(=O)O)cc2)nc(-c2ccc(Cl)s2)n1	383	865	2.3	–	–	–	–
CCc1nc(Nc2ccc(CC(=O)O)cc2)nc(-c2ccoc2)n1	2780	–	–	–	–	–	–
CCc1nc(Nc2ccc(C(=O)O)cc2)nc(-c2ccc(Cl)s2)n1	261	251	1	–	–	–	–
Cc1nc(Nc2ccc(C(=O)O)cc2)nc(-c2ccc(Cl)s2)n1	4050	–	–	–	–	–	–
O=C(O)Cc1ccc(Nc2nc(-c3ccc(Cl)s3)nc(C3CC3)n2)cc1	251	1490	5.9	–	–	–	–
O=C1CCC(NC2=NC(C3CC3)NC(c3cccc(Cl)c3)=N2)CN1 (stereo not given)	135	268	2	–	–	–	–
CCc1nc(Nc2ccc(C(C)(C)C(=O)O)cc2)nc(-c2cccc(Cl)c2)n1	1570	600	0.4	–	–	–	–
Cc1nc(Nc2ccc(CC(=O)O)cc2)nc(-c2ccco2)n1	18800	22300	1.2	–	–	–	–
CC(C)c1nc(Nc2ccc(C(=O)O)cc2)nc(-c2ccc(Cl)s2)n1	220	219	1	–	–	–	–
CCOc1nc(Nc2ccc(OC)cc2)nc(OCC)n1	–	–	–	6700	2300	–	–
O=C(O)c1ccc(Nc2nc(-c3ccc(Cl)cc3)nc(C3CC3)n2)cc1	135	268	2	–	–	–	–
